From PMC9241644, “Evaluation of Novel Quorum Sensing Inhibitors Targeting Auto-Inducer 2 (AI-2) for the Control of Avian Pathogenic Escherichia coli Infections in Chickens” (Microbiology Spectrum, 2022)

Experiments:
Rif^R APEC O78 [1] = test: Efficacy of QSIs in APEC-infected chickens (oral gavage pilot); format: in vivo, Escherichia coli; settings: for Average lesion severity, Lung / Average lesion severity, Liver / Average lesion severity, Airsac / Average lesion severity, Heart / Mortality rate % (Nr.) / Average APEC load, Liver / Average APEC load, Heart / Average APEC load, Kidney / Average APEC load, Lung: Table S1, oral gavage pilot; for Average lesion severity, Lung / Average lesion severity, Liver / Average lesion severity, Airsac / Average lesion severity, Heart: lesion score; for Average lesion severity, Lung: PC 1.25; for Average lesion severity, Liver: PC 1.75; for Average lesion severity, Airsac: PC 2.00; for Average lesion severity, Heart: PC 2.25; for Mortality rate % (Nr.): n = 6/group, 8 DPI, PC 66.6 (4/6); for Average APEC load, Liver: PC 5.95; for Average APEC load, Heart: PC 5.98; for Average APEC load, Kidney: PC 6.81; for Average APEC load, Lung: PC 6.83; for reduction in mortality compared with the PC group / average APEC load reduction in the internal organs (liver, heart, lung, kidney) compared with PC: chickens, QSI oral gavage once daily 5 days, s/c APEC O78 1 × 10^7 CFU/bird; for reduction in mortality compared with the PC group: PC mortality normalized to 100%; for average APEC load reduction in the internal organs (liver, heart, lung, kidney) compared with PC: range over organs
Method: The chicken experiment was carried out using 1-day-old broiler chickens (Mayer Hatchery, OH, USA). Feed and water were given ad libitum. Chickens (n = 6/group) were administered with the QSIs (QSI-1, QSI-2, QSI-5 − 8, QSI-10, ChemBridge, San Diego, CA); previously designated as C1, C2, C5, C6, C7, C8, C10 ([17]) using oral gavage. These compounds were selected based on their high efficacy in in vitro studies and the doses correspond to 30X of the initial in vitro screening concentration ([17]). The QSIs were suspended in dimethyl sulfoxide (DMSO; used as a vehicle) and administered once daily for 5 successive days (starting from day 4 to day 8). The first dose was administered 1 day before the challenge, followed by the second dose on the challenge day (2 h before challenge), followed by three additional doses on subsequent days. Feeders were removed 1 h prior to the treatment and replaced 1 h after the treatment. Chickens were challenged subcutaneously (s/c) on day 5 with Rif^R APEC O78 (1 × 10^7 CFU/bird) in PBS using syringe (27 gauge, 0.5 in.). The challenge dose, which […], was chosen based on preliminary experiments conducted with different infection routes (subcutaneous s/c, intra-tracheal and intra-airsacs) and different doses (10^6, 10^7, and 10^8 CFU/chicken). […] Therefore, we selected this challenge dose and route for evaluation of QSIs in chickens ([34]). The positive (PC; infected with APEC O78 and DMSO treated) and negative (NC; non-infected and non-treated) control groups were included.
(§1) Chickens were monitored for clinical signs for 8 DPI. Any chickens moribund during this period were humanely euthanized and necropsied to determine bacterial load in the internal organs (liver, heart, lung, and kidney). Internal organs were aseptically collected, weighed and suspended in 1× PBS, the amount of PBS added was adjusted based on the organ size to make a suspension, the organ size and amount of PBS added were included in the final calculation of the CFU. The samples were homogenized, serially diluted 10-fold, plated on MacConkey agar (Remel, CA, USA) containing 50 μg/mL rifampicin, and incubated at 37°C for 24 h to determine the CFU/g. Pathological lesions severity in internal organs (pericarditis, perihepatitis, airsacculitis, and lung congestion) was scored as described previously ([21], [59]). At 8 DPI, the remaining chickens were humanely euthanized and necropsied, lesions were scored, and the APEC load was quantified in internal organs as described above.

Rif^R APEC O78 [2] = test: Comparative efficacy of QSI-5 and SDM in field simulated conditions (built-up floor litter); format: in vivo, Escherichia coli
Description: as §1
To compare the efficacy of QSI-5 with an antibiotic SDM currently used in the field, chickens (n = 70) were raised on built-up floor litter in a field-simulated conditions. One-day-old broiler chickens (Case Farms Ohio Hatchery, OH, USA) were used for conducting the experiment. The optimized dose of QSI-5 (1 mg/L) and the therapeutic dose of SDM (495.323 mg/L) (0.05%) were given in drinking water daily for 7 days (starting from day 5 to day 11 of age). The volume of drinking water needed daily was determined as described above. On day 6, the chickens were infected s/c with Rif^r APEC O78 (5 × 10^6 CFU/chicken, s/c). PC (0.05% DMSO treated and infected) and NC (non-infected and non-treated) control groups were included. The mortality was recorded daily until the end of the experiment (42 days of age: slaughter age). At 8 DPI, half of the chickens from each group were necropsied, lesions were scored, and the APEC load was quantified in the internal organs as described above. The other half of the chickens were raised until day 42 to determine the impact of treatment on the body weight gain and feed intake. To calculate the FCR, body weight was measured once every week and feed intake was recorded every day. On day 42, the remaining chickens were euthanized, body weight was measured and 10 chickens from each group were randomly selected and necropsied, lesions and APEC load were assessed in the internal organs.

[3] = QSI-5 and SDM residue quantification in muscle, kidney and liver (LC-MS); format: in vivo, chickens; settings: in vivo
Method: The safety of QSI-5 and SDM was assessed by measuring the level of drug residue in the muscle, kidney, and liver using LC-MS (CCIC, MS&P Facility, OSU) as described before ([34]). As described above, chickens were administered with the optimized dose of QSI-5 (1 mg/L) and the therapeutic dose of SDM (495.323 mg/L) (0.05%) in drinking water daily for 7 days (starting from day 5 to day 11 of age). Tissue samples were collected individually from chickens treated with QSI-5 and SDM (five chickens per group) from experimental set up as described for floor trial at 2 DPLT, 5 DPLT, and […] (slaughter age). All samples were weighed and extracted at a 400 mg/mL ratio of tissue in the extraction solution (50:50 H2O: ACN). Samples were homogenized using a probe sonicator 20 times and centrifuged at 13,000 × g for 30 min. Sixty μL of the supernatant was transferred into glass vials and dried in a SpeedVac for 1.5 h, and then resuspended in 120 μL of 25:25:50 H2O:ACN:MeOH. Standard calibration, LC system, mass spectrometer, and drug target monitoring were performed as described above. Calibration standard curves for measuring the accumulation of QSI-5 and SDM in the kidney, liver, and muscle are shown in Fig. S6A and S6B.

## COCCN1CCC(CN(Cc2cccnc2)Cc2ccccc2Cl)CC1 [QSI-1]
Rif^R APEC O78 [1]
  Average lesion severity, Lung: 0.50
  Average lesion severity, Liver: 2.17
  Average lesion severity, Airsac: 1.83
  Average lesion severity, Heart: 3.00
  Mortality rate % (Nr.): 50%
  Average APEC load, Liver: 5.30 Log CFU/g of tissue
  Average APEC load, Heart: 5.63 Log CFU/g of tissue
  Average APEC load, Kidney: 6.28 Log CFU/g of tissue
  Average APEC load, Lung: 5.92 Log CFU/g of tissue
  reduction in mortality compared with the PC group: 25%
  average APEC load reduction in the internal organs (liver, heart, lung, kidney) compared with PC: did not reduce the APEC load

## Cc1ccccc1N1CCN(C2CCCN(C(=O)c3ccc(F)c(Cl)c3)C2)CC1 (stereo not drawn) [QSI-2]
Rif^R APEC O78 [1]
  Average lesion severity, Lung: 0.17
  Average lesion severity, Liver: 1.00
  Average lesion severity, Airsac: 0.92
  Average lesion severity, Heart: 1.67
  Mortality rate % (Nr.): 33.3%
  Average APEC load, Liver: 4.20 Log CFU/g of tissue
  Average APEC load, Heart: 4.87 Log CFU/g of tissue
  Average APEC load, Kidney: 5.07 Log CFU/g of tissue
  Average APEC load, Lung: 5.15 Log CFU/g of tissue
  reduction in mortality compared with the PC group: 50%

## O=[N+]([O-])c1cccc(S(=O)(=O)Nc2ccc(Br)cc2)c1 [QSI-6]
Rif^R APEC O78 [1]
  Average lesion severity, Lung: 0.50
  Average lesion severity, Liver: 0.83
  Average lesion severity, Airsac: 1.17
  Average lesion severity, Heart: 1.50
  Mortality rate % (Nr.): 66.6%
  Average APEC load, Liver: 4.62 Log CFU/g of tissue
  Average APEC load, Heart: 4.87 Log CFU/g of tissue
  Average APEC load, Kidney: 5.35 Log CFU/g of tissue
  Average APEC load, Lung: 5.17 Log CFU/g of tissue
  reduction in mortality compared with the PC group: did not reduce mortality

## O=C(CCN1CCN(c2ccccc2F)CC1)Nc1ccc(Br)cc1 [QSI-7]
Rif^R APEC O78 [1]
  Average lesion severity, Lung: 0.17
  Average lesion severity, Liver: 1.33
  Average lesion severity, Airsac: 1.00
  Average lesion severity, Heart: 1.33
  Mortality rate % (Nr.): 66.6%
  Average APEC load, Liver: 5.95 Log CFU/g of tissue
  Average APEC load, Heart: 6.13 Log CFU/g of tissue
  Average APEC load, Kidney: 6.13 Log CFU/g of tissue
  Average APEC load, Lung: 6.10 Log CFU/g of tissue
  reduction in mortality compared with the PC group: did not reduce mortality
  average APEC load reduction in the internal organs (liver, heart, lung, kidney) compared with PC: did not reduce the APEC load

## CCc1ccccc1NC1NC(c2c(C)nc3ccccn23)=CS1 (stereo not drawn) [QSI-8]
Rif^R APEC O78 [1]
  Average lesion severity, Lung: 0.17
  Average lesion severity, Liver: 0.50
  Average lesion severity, Airsac: 0.50
  Average lesion severity, Heart: 0.50
  Mortality rate % (Nr.): 33.3%
  Average APEC load, Liver: 3.48 Log CFU/g of tissue
  Average APEC load, Heart: 3.60 Log CFU/g of tissue
  Average APEC load, Kidney: 3.65 Log CFU/g of tissue
  Average APEC load, Lung: 4.60 Log CFU/g of tissue
  reduction in mortality compared with the PC group: 50%

## OCCC1CN(C2CCN(c3ccccc3)CC2)CCN1CCCc1ccccc1 (stereo not drawn) [QSI-10]
Rif^R APEC O78 [1]
  Average lesion severity, Lung: 0.00
  Average lesion severity, Liver: 0.00
  Average lesion severity, Airsac: 0.17
  Average lesion severity, Heart: 0.33
  Mortality rate % (Nr.): 16.6%
  Average APEC load, Liver: 2.50 Log CFU/g of tissue
  Average APEC load, Heart: 2.50 Log CFU/g of tissue
  Average APEC load, Kidney: 2.47 Log CFU/g of tissue
  Average APEC load, Lung: 3.08 Log CFU/g of tissue

## COc1cc(NS(=O)(=O)c2ccc(N)cc2)nc(OC)n1 [SDM, sulfadimethoxine]
Rif^R APEC O78 [2]; Table S3, PC 1.85
  Average lesion severity, Lung: 1.17
Rif^R APEC O78 [2]; Table S3, PC 2.52
  Average lesion severity, Liver: 2.03
Rif^R APEC O78 [2]; Table S3, PC 3.36
  Average lesion severity, Airsac: 2.50
Rif^R APEC O78 [2]; Table S3, PC 3.58
  Average lesion severity, Heart: 2.83
Rif^R APEC O78 [2]; Table S3, PC 7.24
  Average APEC load, Liver: 5.05 Log CFU/ g of tissue
Rif^R APEC O78 [2]; Table S3, PC 7.68
  Average APEC load, Lung: 6.17 Log CFU/ g of tissue
Rif^R APEC O78 [2]; Table S3, PC 7.73
  Average APEC load, Kidney: 5.33 Log CFU/ g of tissue
Rif^R APEC O78 [2]; Table S3, PC 7.92
  Average APEC load, Heart: 5.69 Log CFU/ g of tissue
Rif^R APEC O78 [2]; Table S3, until 42 days of age, QSI-5 (8/63), SDM (19/65), PC 45.6 (31/68)
  Mortality rate % (Nr.): 29.2%
Rif^R APEC O78 [2]; built-up floor litter, QSI-5 1 mg/L, SDM 495.3 mg/L (0.05%) in drinking water 7 days, s/c APEC O78 5 × 10^6 CFU/chicken
  reduction in mortality compared with the PC group: 35.9%
[3]; broiler, chicken, 35 DPLT
  Drug accumulation, Liver (ppm± SD): 0.0 ± 0.0 ppm
  Drug accumulation, Muscle (ppm± SD): 0.0 ± 0.0 ppm
[3]; commercial broiler, chicken, 35 DPLT
  Drug accumulation, Kidney (ppm± SD): 0.0 ± 0.0 ppm
[3]
  residue in any tissues: no detectable residues
